Eleven compounds from patent US9078871B2, “Estrogen receptor modulators and uses thereof” (SERAGON PHARMACEUTICALS, INC., priority 2010, dated 2015) can be followed below.

Assay type in all cases: cell-based
The target in experiment [1] is T1, ER-α (Homo sapiens, UniProt P03372).
T1 construct: endogenous in cells; host or cells: MCF-7
T1 sequence (P03372 1-595): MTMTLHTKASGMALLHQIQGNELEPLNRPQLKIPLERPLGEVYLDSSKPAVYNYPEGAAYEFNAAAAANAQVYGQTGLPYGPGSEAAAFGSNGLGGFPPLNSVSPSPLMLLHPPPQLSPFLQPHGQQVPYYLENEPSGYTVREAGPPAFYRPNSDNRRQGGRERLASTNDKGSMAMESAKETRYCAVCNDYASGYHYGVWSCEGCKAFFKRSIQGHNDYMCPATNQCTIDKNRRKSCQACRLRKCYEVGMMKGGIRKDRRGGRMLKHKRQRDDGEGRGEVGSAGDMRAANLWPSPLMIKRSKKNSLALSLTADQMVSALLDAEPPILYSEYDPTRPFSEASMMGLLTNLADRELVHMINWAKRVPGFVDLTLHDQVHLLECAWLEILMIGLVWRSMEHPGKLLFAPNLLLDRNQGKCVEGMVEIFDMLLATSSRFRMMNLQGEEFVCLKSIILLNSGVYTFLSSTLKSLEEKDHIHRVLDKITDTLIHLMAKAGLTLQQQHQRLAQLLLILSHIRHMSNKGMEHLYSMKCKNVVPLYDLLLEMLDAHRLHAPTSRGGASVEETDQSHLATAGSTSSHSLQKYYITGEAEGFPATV
Nature of the experiment: ER-α in Cell Western Assay (SP1). To be noted: MCF-7 cells, SP1 rabbit monoclonal Ab, 4 or 24 hr post compound addition, read-out: ER In-Cell Western Assay (SP1); for Emax: MCF7, Max Response; for DC50: IC50. The protocol: (§1) MCF-7 cells were adjusted to a concentration of 200,000 cells per mL in RPMI containing 10% charcoal-stripped FBS and 20 mM HEPES. 16 microliters of the cell suspension (3200 cells) was added to each well of a poly-D-lysine 384 well plate, and the cells were incubated overnight to allow the cells to adhere. The following day an eleven point, serial semilog dilution of each compound was added to the cells in 16 μL at a final concentration ranging from 0.3-0.000003 μM. At 4 or 24 hr post compound addition, the cells were fixed (10% formalin in PBS) for 20 minutes. Cells were permeabalized in PBS 0.1% Triton and blocked with LICOR blocking buffer (50 μl/well, 90′). The wells were then incubated overnight at 4° C. with SP1 rabbit monoclonal Ab (Thermo Scientific) diluted 1:1000 in LICOR blocking buffer/0.1% Tween-20. Wells which were treated with blocking buffer with Tween but no antibody were used as a background control. Wells were washed with 0.1% Tween-20/PBS and then incubated in goat anti-rabbit IRDye™ 800CW (LICOR Inc.; 1:1000) and DRAQ5 DNA dye (1:2000 for 2 mM stock) diluted in LICOR blocking buffer containing 0.1% Tween-20 and 0.01% SDS for 60 minutes. Cells were washed (50 μl/well, 5′ each) in 0.1% Tween-20/PBS. Plates were scanned on a LICOR Odyssey infrared imaging system. Integrated intensities in the 800 nm channel and 700 nm channel were measured to determine levels of ER and DNA respectively. Percent ER levels were determined as follows: (Integrated intensity 800 nm sample/integrated intensity 700 nm sample)/(Integrated intensity 800 nm untreated cells/integrated intensity 700 nm untreated cells)×100=% ER levels.

Experiment [2] relates to MCF-7 cells. The experiment can be described thus: Breast Cancer Cell Viability Assay (MCF7 Viability Assay). To be noted: 5 days' compound exposure, CellTiter-Glo; for IC50: Homo sapiens, MCF7, 120 h. The protocol:
MCF-7 cells were adjusted to a concentration of 20,000 cells per mL in RPMI containing 10% FBS and 20 mM HEPES. 16 microliters of the cell suspension (320 cells) was added to each well of a 384 well plate, and the cells were incubated overnight to allow the cells to adhere. The following day an eleven point, serial semilog dilution of each compound was added to the cells in 16 μL at a final concentration ranging from 0.3-0.000003 μM. After 5 days' compound exposure, 16 μL of CellTiter-GLo (Promega, Madison Wis.) was added to the cells the relative luminescence units (RLUs) of each well was determined. CellTiter-Glo added to 32 μL of medium without cells was used to obtain a background value. The Percent viability of each sample was determined as follows: (RLU sample-RLU background/RLU untreated cells-RLU background)×100=% viability.
For orientation: In ATP-based viability assays light output follows the ATP content of the culture.

In experiment [3] the target is T1, ER-α. Nature of the experiment: ER-α In Cell Western Assay (ER1D5). The following applies: MCF-7 cells, ER1D5 antibody, 4 or 24 hr post compound addition, read-out: ER In-Cell Western Assay (ER1D5). How it is done: as §1, with “with ER1D5 (Santa Cruz Biotechnology)” for “with SP1 rabbit monoclonal Ab (Thermo Scientific)”, “diluted 1:100” for “diluted 1:1000”, “goat anti-mouse” for “goat anti-rabbit”

One may read the IC50 as the midpoint of a concentration-inhibition curve. For `CC1=C(c2cccc(O)c2)C(c2ccc(OC[C@H](C)N3CC[C@@H](C)C3)cc2)Oc2ccc(O)cc21` (mixture of isomers) [Example 2, 3-(3-Hydroxyphenyl)-4-methyl-2-(4-((S)-2-((R)-3-methylpyrrolidin-1-yl)propoxy)phenyl)-2H-chromen-6-ol], in experiment [1], the Emax was at least 85% and the DC50 was at most 1 nM. Besides, in experiment [2], the “MCF7 Viability Assay Max Response” value is reported as “++ (++ = a single % value ≧50%)” and the 50% inhibitory concentration (IC50) was at most 1 nM. For the same compound, the Emax in experiment [3] (MCF7, Max Response) is at least 65%. The DC50 in experiment [3] (IC50) was at most 1 nM.
For the compound `CC1=C(c2cccc(O)c2F)C(c2ccc(OC[C@H](C)N3CC[C@@H](C)C3)cc2)Oc2ccc(O)cc21` (stereo partly drawn) [Example 60, 3-(2-Fluoro-3-hydroxyphenyl)-4-methyl-2-(4-((S)-2-((R)-3-methylpyrrolidin-1-yl)propoxy)phenyl)-2H-chromen-6-ol], in experiment [1], the Emax is at least 85% and the DC50 is at most 1 nM. For the same compound, in experiment [2], the “MCF7 Viability Assay Max Response” value is on record as “++ (++ = a single % value ≧50%)” and the IC50 is at most 1 nM.
In the case of `CC1=C(c2cccc(O)c2)C(c2ccc(OC[C@H](C)N3CC[C@@H](C)C3)cc2)Oc2ccc(O)c(F)c21` (stereo partly drawn) [Example 61, 5-Fluoro-3-(3-hydroxyphenyl)-4-methyl-2-(4-((S)-2-((R)-3-methylpyrrolidin-1-yl)propoxy)phenyl)-2H-chromen-6-ol], in experiment [1], the Emax is at least 85% and the DC50 is at most 1 nM. Besides, in experiment [2], the “MCF7 Viability Assay Max Response” value was “++ (++ = a single % value ≧50%)” and the IC50 was at most 1 nM.
For `CC1=C(c2cc(O)ccc2F)C(c2ccc(OC[C@H](C)N3CC[C@@H](C)C3)cc2)Oc2ccc(O)cc21` (stereo partly drawn) [Example 62, 3-(2-Fluoro-5-hydroxyphenyl)-4-methyl-2-(4-((S)-2-((R)-3-methylpyrrolidin-1-yl)propoxy)phenyl)-2H-chromen-6-ol], in experiment [1], the Emax was at least 85% and the DC50 was at most 1 nM. In experiment [2], the “MCF7 Viability Assay Max Response” value was “++ (++ = a single % value ≧50%)” and the IC50 was at most 1 nM.
On to `CC1=C(c2ccc(F)cc2)C(c2ccc(OC[C@H](C)N3CCC[C@H]3C)cc2)Oc2ccc(O)cc21` (stereo partly drawn) [Example 63, 3-(4-Fluorophenyl)-4-methyl-2-(4-((S)-2-((R)-2-methylpyrrolidin-1-yl)propoxy)phenyl)-2H-chromen-6-ol], for which, in experiment [1], the Emax was in the range of 60 to 85% and the DC50 was at most 1 nM. Moreover, in experiment [2], the “MCF7 Viability Assay Max Response” value is reported as “++ (++ = a single % value ≧50%)” and the half-maximal inhibitory concentration (IC50) was at most 1 nM.
For `CC1=C(c2cccc(O)c2)C(c2ccc(OC[C@H](C)N3CC[C@@H](F)C3)cc2)Oc2ccc(O)cc21` (stereo partly drawn) [Example 64, 2-(4-((S)-2-((R)-3-Fluoropyrrolidin-1-yl)propoxy)phenyl)-3-(3-hydroxyphenyl)-4-methyl-2H-chromen-6-ol], in experiment [1], the Emax was at least 85% and the DC50 was at most 1 nM. For the same compound, in experiment [2], the “MCF7 Viability Assay Max Response” value is reported as “++ (++ = a single % value ≧50%)” and the IC50 is at most 1 nM.
`CC1=C(c2cccc(O)c2)C(c2ccc(OC[C@H](C)N3C4CCC3CC4)cc2)Oc2ccc(O)cc21` (stereo partly drawn) [Example 67, 2-(4-((S)-2-(7-Azabicyclo[2.2.1]heptan-7-yl)propoxy)phenyl)-3-(3-hydroxyphenyl)-4-methyl-2H-chromen-6-ol]: in experiment [1], the Emax is under 60% and the DC50 is at most 1 nM. In experiment [2], the “MCF7 Viability Assay Max Response” value is reported as “++ (++ = a single % value ≧50%)” and the IC50 was at most 1 nM.
In the case of `CC1=C(c2ccc(C(F)(F)F)c(O)c2)C(c2ccc(OC[C@H](C)N3CC[C@@H](C)C3)cc2)Oc2ccc(O)cc21` (stereo partly drawn) [Example 68, 3-(3-Hydroxy-4-(trifluoromethyl)phenyl)-4-methyl-2-(4-((S)-2-((R)-3-methylpyrrolidin-1-yl)propoxy)phenyl)-2H-chromen-6-ol], in experiment [1], the Emax was in the range of 60 to 85% and the DC50 is over 1 nM. In experiment [2], the “MCF7 Viability Assay Max Response” value is listed as “++ (++ = a single % value ≧50%)” and the IC50 is over 1 nM.
Take `CC1=C(c2ccc(O)c(C(F)(F)F)c2)C(c2ccc(OC[C@H](C)N3CC[C@@H](C)C3)cc2)Oc2ccc(O)cc21` (stereo partly drawn) [Example 69, 3-(4-Hydroxy-3-(trifluoromethyl)phenyl)-4-methyl-2-(4-((S)-2-((R)-3-methylpyrrolidin-1-yl)propoxy)phenyl)-2H-chromen-6-ol]: in experiment [1], the Emax was 60 to 85% and the DC50 was at most 1 nM. Besides, in experiment [2], the “MCF7 Viability Assay Max Response” value is given as “++ (++ = a single % value ≧50%)” and the half-maximal inhibitory concentration (IC50) was over 1 nM.
For `CC1=C(c2ccc(F)cc2)C(c2ccc(OC[C@H](C)N3CCOCC3)cc2)Oc2ccc(O)cc21` (stereo partly drawn) [Example 70, 3-(4-Fluorophenyl)-4-methyl-2-(4-((S)-2-morpholinopropoxy)phenyl)-2H-chromen-6-ol] the same measures were 60 to 85%, at most 1 nM, “++ (++ = a single % value ≧50%)” and over 1 nM.
The matching figures for `CC1=C(c2ccc(F)cc2)C(c2ccc(OC[C@H](C)N3CC4CC4C3)cc2)Oc2ccc(O)cc21` (stereo partly drawn) [Example 71, 2-(4-((2S)-2-(3-Azabicyclo[3.1.0]hexan-3-yl)propoxy)phenyl)-3-(4-fluorophenyl)-4-methyl-2H-chromen-6-ol]: 60 to 85%, at most 1 nM, “++ (++ = a single % value ≧50%)” and over 1 nM.
